Source: PubChem BioAssay (NCI)
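Cells were grown in 96-well plates and exposed to each compound for 48 hours at five concentrations; endpoints were interpolated linearly between bracketing concentrations, or set to the highest concentration if not reached. At the GI50, growth is halved. At the TGI there is no net growth.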

Legend:
Test in all cases: inhibition of tumour cell growth, NCI panel, 48 h
SW-620 colon = system: SW-620 colon
UACC-62 melanoma = system: UACC-62 melanoma
ACHN renal = system: ACHN renal
SF-295 CNS = system: SF-295 CNS
NCI-H226 lung = system: NCI-H226 lung
EKVX NSCLC = system: EKVX NSCLC
COLO 205 colon = system: COLO 205 colon
HCT-15 colon = system: HCT-15 colon
HOP-62 NSCLC = system: HOP-62 NSCLC
A549 NSCLC = system: A549 NSCLC

| SMILES | GI50 (SW-620 colon) [µM] | TGI (SW-620 colon) [µM] | GI50 (UACC-62 melanoma) [µM] | TGI (UACC-62 melanoma) [µM] | GI50 (ACHN renal) [µM] | TGI (ACHN renal) [µM] | GI50 (SF-295 CNS) [µM] | TGI (SF-295 CNS) [µM] | GI50 (NCI-H226 lung) [µM] | TGI (NCI-H226 lung) [µM] | GI50 (EKVX NSCLC) [µM] | TGI (EKVX NSCLC) [µM] | GI50 (COLO 205 colon) [µM] | TGI (COLO 205 colon) [µM] | GI50 (HCT-15 colon) [µM] | TGI (HCT-15 colon) [µM] | GI50 (HOP-62 NSCLC) [µM] | TGI (HOP-62 NSCLC) [µM] | GI50 (A549 NSCLC) [µM] | TGI (A549 NSCLC) [µM] |
| --- | --- | --- | --- | --- | --- | --- | --- | --- | --- | --- | --- | --- | --- | --- | --- | --- | --- | --- | --- | --- |
| CCC(c1cccc(O)c1)C(CC)c1cccc(O)c1 (stereo not given) | 4.44 | 16.4 | 3.67 | 16 | 5.64 | 18.9 | 3.99 | 19.7 | 12.1 | 26.3 | 4.54 | 35.7 | 2.05 | 5.41 | 3.52 | 14.8 | 4.89 | 17.4 | 8.58 | 24.2 |
| COc1ccc(Cl)cc1Nc1nc(C(F)(F)F)ccc1C(=O)N/N=C/c1cc(OC)c(OC)c(OC)c1 | 2.79 | > 100 | 2.09 | 3.74 | 3.28 | 11.3 | 1.09 | 2.92 | 3.35 | 12.6 | 1.36 | 13.5 | 2.62 | 8.33 | 1.23 | 11.9 | 5.17 | 20.5 | 2.64 | 6.64 |
| O=C([CH-]C(=O)C(F)(F)F)c1ccccc1.O=C([CH-]C(=O)C(F)(F)F)c1ccccc1.O=C([CH-]C(=O)C(F)(F)F)c1ccccc1.O=C([CH-]C(=O)C(F)(F)F)c1ccccc1.[Eu+3].c1ccncc1 | 11.9 | > 100 | 6.67 | 63.3 | 8.71 | > 100 | 3.02 | 31 | 15.6 | 79 | 11.4 | 58.6 | 28.8 | > 100 | 4.98 | > 100 | 8.37 | 64 | 25.6 | > 100 |
| CCOC(=O)CC1NC(=O)CS1 (stereo not given) | – | 37.4 | – | > 100 | – | > 100 | – | > 100 | – | 48.1 | – | > 100 | – | 16.3 | – | 45.1 | – | > 100 | – | > 100 |
| C/C(=N\NC(N)=S)c1nc2ccc(Cl)cc2[nH]1 | 2.96 | > 50 | 2.2 | 33.8 | 0.848 | 7.83 | 1.33 | 6.33 | 2.48 | 10.1 | 0.966 | 12.3 | 2.17 | 10.1 | 0.857 | 12.5 | 2.7 | 11.9 | 2.3 | 9.95 |
| Cn1c(=O)c2c(ncn2CN2CCN(Cn3cnc4c3c(=O)n(C)c(=O)n4C)CC2)n(C)c1=O | – | > 100 | – | > 100 | – | > 100 | – | > 100 | – | > 100 | – | > 100 | – | > 100 | – | > 100 | – | > 100 | – | > 100 |
| COc1ccc(Cn2c(Cl)c(/C=C3/C(=O)Nc4ccccc43)c3cc(OC)c(C)cc32)cc1 | 3.46 | > 100 | 2.17 | 18.7 | 8.11 | > 100 | 2.92 | 24.2 | 2.92 | 8.32 | 45.5 | > 100 | 2.33 | 5.52 | 4.15 | > 100 | 5.67 | > 100 | 7.86 | > 100 |
| CSc1ccc(/C=C2\C=C(CC(=O)NCc3ccc(C(=O)c4ccccc4)cc3)c3cc(F)ccc32)cc1 | 0.0431 | > 100 | 0.0591 | 10.7 | 0.261 | 12.3 | 0.0453 | 6.9 | 0.0951 | 0.903 | 0.423 | > 100 | 0.19 | 0.431 | 0.0492 | > 51.3 | 0.0633 | 3.38 | 0.137 | 4.8 |
| O=C(OC[C@H]1O[C@@H](OC(=O)c2cc(O)c(O)c(O)c2)[C@H](OC(=O)c2cc(O)c(O)c(O)c2)[C@@H](OC(=O)c2cc(O)c(O)c(O)c2)[C@@H]1OC(=O)c1cc(O)c(O)c(O)c1)c1cc(O)c(O)c(O)c1 | – | > 100 | – | 6.44 | – | 30.1 | – | 20.3 | – | 7.98 | – | 70.9 | – | 46.3 | – | > 100 | – | 14.4 | – | 19.8 |
| C=C(C=O)CCCC(C)[C@@H]1CCC23CC12CCC1[C@@]2(C)CCC(OC(C)=O)C(C)(C)C2CC(OC2OC(COC(C)=O)C(O)C(O)C2O)[C@]13C (stereo not given in full) | – | 1.44 | – | 3.49 | – | 9.78 | – | 11.6 | – | 12.8 | – | 13.7 | – | 14.4 | – | 7.5 | – | 14.3 | – | 12.5 |
| OCC1OC(n2cnc3c(/C=C(/O)c4ccccc4)ncnc32)C(O)C1O (stereo not given) | – | > 100 | – | > 100 | – | > 100 | – | > 100 | – | > 92.7 | – | > 100 | – | 2.7 | – | > 100 | – | > 100 | – | > 100 |
| O=C1c2ccccc2-n2c1nc1ccccc1c2=O | – | 70.1 | – | 14.5 | – | 29.3 | – | 18.8 | – | > 80.1 | – | 35.3 | – | 27.8 | – | > 81.3 | – | 41 | – | 17 |
| CC(C)Oc1cc(O)c2c(c1)OCC=C2CCC(=O)O | – | > 100 | – | > 100 | – | > 100 | – | > 100 | – | 69.8 | – | 91.2 | – | 31.2 | – | 66.2 | – | > 100 | – | > 100 |
| N#C[C@@H]1C(n2ccc(N)nc2=O)O[C@H](CO)[C@H]1O (stereo not given in full) | 53.6 | > 100 | 28 | > 100 | 1.47 | > 100 | > 100 | > 100 | > 57 | > 100 | > 100 | > 100 | 8.79 | > 100 | > 100 | > 100 | 3.97 | > 100 | 6.16 | > 100 |
| CC1CCN(CC(=O)N2c3ccccc3Sc3cc4ccccc4cc32)CC1 | – | > 100 | – | > 100 | – | > 100 | – | > 100 | – | > 100 | – | > 100 | – | > 100 | – | > 100 | – | > 100 | – | > 100 |
